Laboratory results published in ChEMBL document CHEMBL5143665, “Discovery and preclinical evaluations of WX-0593, a novel ALK inhibitor targeting crizotinib-resistant mutations” (Bioorg Med Chem Lett, 2022).

Experiments:
[1] = Clearance in mouse at 1 mg/kg, iv; format: ADME, organism-based; conditions: in vivo
[2] = Volume of distribution at steady state in mouse at 1 mg/kg, iv; format: ADME, organism-based; conditions: in vivo, read-out: Vdss
[3] = Half-life in mouse at 1 mg/kg, iv; format: ADME, organism-based; conditions: in vivo
[4] = Cmax in mouse at 10 mg/kg, po; format: ADME, organism-based; set-up: dose 10 mg/kg, route po; conditions: in vivo
[5] = AUC (0 to last) in mouse at 10 mg/kg, po; format: ADME, organism-based; set-up: time 0 - last, dose 10 mg/kg, route po; conditions: in vivo
[6] = Oral bioavailability in mouse at 10 mg/kg; format: ADME, organism-based; conditions: in vivo
[7] = test system: KARPAS-299; assay: cells; conditions: Homo sapiens
Description: Antiproliferative activity against human KARPAS-299 cells harbouring wild type ALK assessed as reduction in cell viability by Celltitre-Glo luminescent assay

[8] = test system: BaF3; assay: cells; conditions: Mus musculus
Description: Antiproliferative activity against mouse BaF3 cells harbouring ALK wild type assessed as reduction in cell viability by Celltitre-Glo luminescent assay

[9] = test system: BaF3; assay: cells; conditions: Mus musculus; remark: listed apart in the source
Description: Antiproliferative activity against mouse BaF3 cells harbouring ALK L1196M mutant assessed as reduction in cell viability by Celltitre-Glo luminescent assay

[10] = test system: BaF3; assay: cells; conditions: Mus musculus; remark: listed apart in the source
Description: Antiproliferative activity against mouse BaF3 cells harbouring ALK C1156Y mutant assessed as reduction in cell viability by Celltitre-Glo luminescent assay

| SMILES | clearance [1] [mL/min/kg] | Vd [2] [L/kg] | half-life [3] [h] | Cmax [4] [ng/mL] | AUC(0-t) [5] [ng·h/mL] | bioavailability [6] [%] | IC50 [7] [nM] | IC50 [8] [nM] | IC50 [9] [nM] | IC50 [10] [nM] |
| --- | --- | --- | --- | --- | --- | --- | --- | --- | --- | --- |
| COc1cc(N2CCC3(CC2)CNC3)ccc1Nc1ncc(Cl)c(Nc2ccccc2P(C)(C)=O)n1 | 49 | 1.7 | 1.5 | 113 | 219 | 5.2 | 60 | – | – | – |
| CN1CCC2(CC1)CCN(c1ccc(Nc3ncc(Cl)c(Nc4ccccc4P(C)(C)=O)n3)c(OC(F)F)c1)CC2 | – | – | – | – | – | – | 15 | 24 | 39 | 36 |
